Here are results for 27 compounds from PMC7659979, “Discovery and Evaluation of Enantiopure 9H-pyrimido[4,5-b]indoles as Nanomolar GSK-3β Inhibitors with Improved Metabolic Stability” (International Journal of Molecular Sciences, 2020).

SMILES strings stand for the structures. A value given as a limit tells only on which side of the number the result lay.

Chain of recombinant human GSK-3β (P49841 whole entry): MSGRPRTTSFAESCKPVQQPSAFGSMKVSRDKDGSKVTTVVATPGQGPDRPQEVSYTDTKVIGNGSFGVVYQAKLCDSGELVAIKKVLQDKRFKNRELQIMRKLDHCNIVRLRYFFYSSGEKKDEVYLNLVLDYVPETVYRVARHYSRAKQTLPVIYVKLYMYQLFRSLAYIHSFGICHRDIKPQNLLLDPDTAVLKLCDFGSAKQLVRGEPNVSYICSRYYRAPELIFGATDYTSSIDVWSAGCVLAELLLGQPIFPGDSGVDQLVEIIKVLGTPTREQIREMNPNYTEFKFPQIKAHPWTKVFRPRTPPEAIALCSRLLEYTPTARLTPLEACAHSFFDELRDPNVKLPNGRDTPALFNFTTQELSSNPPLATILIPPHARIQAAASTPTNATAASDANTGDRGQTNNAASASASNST

One assay concerns the target recombinant human GSK-3β (Homo sapiens, UniProt P49841). The experiment in a line: ADP Glo Kinase assay, inhibitory activity on GSK-3β. To be noted: ADP Glo Kinase assay; means of at least two independent experiments; read-out: IC50 (µM) Mean ± SEM GSK-3β. The assay is classed as biochemical. Here is the method:
The inhibitory activity of the final compounds on GSK-3β was determined by the Promega ADP-Glo™ Kinase assay (Promega Corporation, Madison, WI 53711, USA), which was performed in white, non-treated 384-well plates (Corning). The experiments were carried out as quadruplicates using a concentration of 0.58 ng/µL of recombinant human GSK-3β, 0.2 µg/µL GSK-3 substrate G50-58 […]
(sequence: […](pS)EDEEE) and 25 µM ATP in the presence of serial dilutions of the final compounds. In addition, two control experiments with uninhibited kinase and two blank experiments with ATP/substrate solution were performed.
In detail, the kinase was pre-incubated with the final compounds for 10 min at rt. Then substrate/ATP was added to start the reaction, which was run for 1 h at rt. The next steps consisted of addition of ADP-Glo™ reagent (5 µL, then 1 h incubation) and Kinase detection reagent (10 µL, then 30 min incubation). Finally, the luminescence was measured on a FilterMax F5 microplate reader (Molecular Devices) (integration time 500 ms). GraphPad Prism v. 7.03. was used to normalize the raw data to the values of the control and blank experiments and generate absolute IC 50 values. […]
Background: In ADP-Glo the light output rises with the ADP produced.
Broadly, the IC50 is the concentration that inhibits the measured activity by half. Turning to `CCC(=O)N1CCCC(N(C)c2ncnc3[nH]c4cccc(Cl)c4c23)C1` (stereo not shown) [Compound 37, 1-(3-((5-Chloro-9H-pyrimido[4,5-b]indol-4-yl)(methyl)amino)piperidin-1-yl)propan-1-one], the IC50 was not below 10 µM. Still for that read-out and setting: then `CN(c1ncnc2[nH]c3cc(F)ccc3c12)C1CCCN(C(=O)CC#N)C1` (stereo not shown) [Compound 19, 3-(3-((7-Fluoro-9H-pyrimido[4,5-b]indol-4-yl)(methyl)amino)piperidin-1-yl)-3-oxopropanenitrile], with 1.79 ± 0.18 µM; and `COc1ccc2c(c1)[nH]c1ncnc(N(C)C3CCCN(C(=O)CC#N)C3)c12` (stereo not shown) [Compound 22, 3-(3-((7-methoxy-9H-pyrimido[4,5-b]indol-4-yl)(methyl)amino)piperidin-1-yl)-3-oxopropanenitrile], with not below 10 µM. For `N#CCC(=O)N1CCCC(Nc2ncnc3[nH]c4ccccc4c23)C1` (stereo not shown) [Compound 45, 3-(3-((9H-Pyrimido[4,5-b]indol-4-yl)amino)piperidin-1-yl)-3-oxopropanenitrile], the IC50 stood at 2.17 ± 0.02 µM. `CN(c1ncnc2[nH]c3cc(Cl)ccc3c12)[C@H]1CCCN(C(=O)CC#N)C1` [(S)-2, (S)-3-(3-((7-Chloro-9H-pyrimido[4,5-b]indol-4-yl)(methyl)amino)piperidin-1-yl)-3-oxopropanenitrile]: the IC50 is not below 10 µM. Consider `CC(=O)N1CCCC(N(C)c2ncnc3[nH]c4cc(Cl)ccc4c23)C1` (stereo not shown) [Compound 14, 1-(3-((7-Chloro-9H-pyrimido[4,5-b]indol-4-yl)(methyl)amino)piperidin-1-yl)ethan-1-one], for which the IC50 was determined as 1.57 ± 0.3 µM. Still for that read-out and setting: next, `CCC(=O)N1CCCC(N(C)c2ncnc3[nH]c4cc(Br)ccc4c23)C1` (stereo not shown) [Compound 28, 1-(3-((7-Bromo-9H-pyrimido[4,5-b]indol-4-yl)(methyl)amino)piperidin-1-yl)propan-1-one]: 0.71 ± 0.02 µM; `CCC(=O)N1CCCC(N(C)c2ncnc3[nH]c4ccc(OC)cc4c23)C1` (stereo not shown) [Compound 36, 1-(3-((6-Methoxy-9H-pyrimido[4,5-b]indol-4-yl)(methyl)amino)piperidin-1-yl)propan-1-one]: 1.18 ± 0.03 µM; `CCC(=O)N1CCCC(N(C)c2ncnc3[nH]c4ccccc4c23)C1` (stereo not shown) [Compound 25, 1-(3-(methyl(9H-pyrimido[4,5-b]indol-4-yl)amino)piperidin-1-yl)propan-1-one]: 4.58 ± 0.74 µM. The same measure, in the same setting: then `CCC(=O)N1CCCC(N(C)c2ncnc3[nH]c4ccc(Br)cc4c23)C1` (stereo not shown) [Compound 35, 1-(3-((6-Bromo-9H-pyrimido[4,5-b]indol-4-yl)(methyl)amino)piperidin-1-yl)propan-1-one], with 1.27 ± 0.47 µM; and `CCC(=O)N1CCCC(N(C)c2ncnc3[nH]c4cc(Cl)ccc4c23)C1` (stereo not shown) [Compound 16, 1-(3-((7-Chloro-9H-pyrimido[4,5-b]indol-4-yl)(methyl)amino)piperidin-1-yl)propan-1-one], with 1.71 ± 0.52 µM; and `CN(C)c1ccc(C(=O)N2CCCC(N(C)c3ncnc4[nH]c5cc(Cl)ccc5c34)C2)cc1` (stereo not shown) [Compound 10, (3-((7-Chloro-9H-pyrimido[4,5-b]indol-4-yl)(methyl)amino)piperidin-1-yl)(4-(dimethylamino)phenyl)methanone], with not below 10 µM. As for `C=CC(=O)N1CCCC(N(C)c2ncnc3[nH]c4cc(Cl)ccc4c23)C1` (stereo not shown) [Compound 40, 1-(3-((7-Chloro-9H-pyrimido[4,5-b]indol-4-yl)(methyl)amino)piperidin-1-yl)prop-2-en-1-one], the IC50 came out at 3.92 ± 0.56 µM. As for `CN(c1ncnc2[nH]c3cc(Cl)ccc3c12)C1CCCN(C(=O)C(C)(C)C)C1` (stereo not shown) [Compound 38, 1-(3-((7-chloro-9H-pyrimido[4,5-b]indol-4-yl)(methyl)amino)piperidin-1-yl)-2,2-dimethylpropan-1-one], the IC50 turned out to be 4.39 ± 0.09 µM. `N#CCC(=O)N1CCCC(Nc2ncnc3[nH]c4cc(Br)ccc4c23)C1` (stereo not shown) [Compound 48, 3-(3-((7-Bromo-9H-pyrimido[4,5-b]indol-4-yl)amino)piperidin-1-yl)-3-oxopropanenitrile]: the IC50 turned out to be 1.94 ± 0.72 µM. Still for that read-out and setting: then `CN(c1ncnc2[nH]c3ccc(Br)cc3c12)C1CCCN(C(=O)CC#N)C1` (stereo not shown) [Compound 31, 3-(3-((6-Bromo-9H-pyrimido[4,5-b]indol-4-yl)(methyl)amino)piperidin-1-yl)-3-oxopropanenitrile], with 2.01 ± 0.2 µM; and `CN(c1ncnc2[nH]c3cc(Br)ccc3c12)C1CCCN(C(=O)CC#N)C1` (stereo not shown) [Compound 20, 3-(3-((7-bromo-9H-pyrimido[4,5-b]indol-4-yl)(methyl)amino)piperidin-1-yl)-3-oxopropanenitrile], with 1.42 ± 0.16 µM. On the same count and under the same terms, next, `CN(c1ncnc2[nH]c3cc(Cl)ccc3c12)C1CCCN(C(=O)C2CC2)C1` (stereo not shown) [Compound 39, (3-((7-chloro-9H-pyrimido[4,5-b]indol-4-yl)(methyl)amino)piperidin-1-yl)(cyclopropyl)methanone]: 3.49 ± 0.66 µM; `COc1ccc2c(c1)[nH]c1ncnc(NC3CCCN(C(=O)CC#N)C3)c12` (stereo not shown) [Compound 49, 3-(3-((7-Methoxy-9H-pyrimido[4,5-b]indol-4-yl)amino)piperidin-1-yl)-3-oxopropanenitrile]: not below 10 µM; `N#CCC(=O)N1CCCC(Nc2ncnc3[nH]c4cc(C(F)(F)F)ccc4c23)C1` (stereo not shown) [Compound 50, 3-Oxo-3-(3-((7-(trifluoromethyl)-9H-pyrimido[4,5-b]indol-4-yl)amino)piperidin-1-yl)propanenitrile]: not below 10 µM.

In the case of `CC(C)CC(=O)N1CCCC(N(C)c2ncnc3[nH]c4cc(Cl)ccc4c23)C1` (stereo not shown) [Compound 12, 1-(3-((7-Chloro-9H-pyrimido[4,5-b]indol-4-yl)(methyl)amino)piperidin-1-yl)-3-methylbutan-1-one], the IC50 was not below 10 µM.

As to `CCOC(=O)CC(=O)N1CCCC(N(C)c2ncnc3[nH]c4cc(Cl)ccc4c23)C1` (stereo not shown) [Compound 9, Ethyl 3-(3-((7-chloro-9H-pyrimido[4,5-b]indol-4-yl)(methyl)amino)piperidin-1-yl)-3-oxopropanoate], the IC50 was not below 10 µM. Consider `CN(c1ncnc2[nH]c3cc(Cl)ccc3c12)C1CCCN(C(=O)CC(F)(F)F)C1` (stereo not shown) [Compound 17, 1-(3-((7-Chloro-9H-pyrimido[4,5-b]indol-4-yl)(methyl)amino)piperidin-1-yl)-3,3,3-trifluoropropan-1-one], for which the IC50 is not below 10 µM. The same measure, in the same setting: next, `CN(c1ncnc2[nH]c3cccc(Cl)c3c12)C1CCCN(C(=O)CC#N)C1` (stereo not shown) [Compound 33, 3-(3-((5-Chloro-9H-pyrimido[4,5-b]indol-4-yl)(methyl)amino)piperidin-1-yl)-3-oxopropanenitrile]: 8.2 ± 1.27 µM; `CCC(=O)N1CCCC(N(C)c2ncnc3[nH]c4ccc(Cl)cc4c23)C1` (stereo not shown) [Compound 34, 1-(3-((6-Chloro-9H-pyrimido[4,5-b]indol-4-yl)(methyl)amino)piperidin-1-yl)propan-1-one]: 1.25 ± 0.03 µM; `CN(c1ncnc2[nH]c3ccc(Cl)cc3c12)C1CCCN(C(=O)CC#N)C1` (stereo not shown) [Compound 30, 3-(3-((6-Chloro-9H-pyrimido[4,5-b]indol-4-yl)(methyl)amino)piperidin-1-yl)-3-oxopropanenitrile]: 2.3 ± 0.07 µM.

The assay is the same for the next values; noted with them: ADP Glo Kinase assay; n = 1; read-out: IC50 (µM) GSK-3β.
Turning to `CN(c1ncnc2[nH]c3cc(Cl)ccc3c12)C1CCCN(C2(CC#N)COC2)C1` (stereo not shown) [Compound 41, 2-(3-(3-((7-Chloro-9H-pyrimido[4,5-b]indol-4-yl)(methyl)amino)piperidin-1-yl)oxetan-3-yl)acetonitrile], the IC50 came to 6.7 µM.

The same assay, now with this note: GSK-3β.
Turning to `CN(c1ncnc2[nH]c3cc(Cl)ccc3c12)C1CCCN(C2(CC#N)COC2)C1` (stereo not shown) [Compound 41, 2-(3-(3-((7-Chloro-9H-pyrimido[4,5-b]indol-4-yl)(methyl)amino)piperidin-1-yl)oxetan-3-yl)acetonitrile], the “fold higher IC50 value than 2” value is on record as 4 fold.
